Data: patent US20190233884A1 (University of Southern California, priority 2016, published 2019)

Test system: patients with refractory metastatic colorectal cancer (mCRC)
Experiment: PFS, OS and disease control in the control cohort of refractory mCRC patients receiving regorafenib (n=52, Italy), by baseline characteristics and SNP genotype
Type: in vivo, human
Conditions: control cohort
Experimental: All patients underwent the treatment in salvage-line setting.
Patients in the control group received 160 mg regorafenib (Bayer, Leverkusen, Germany) once daily from day 1 to 21 every 4 weeks. Doses were adjusted based on haematological and non-haematological adverse events at the treating physician's discretion in accordance with the manufacturer's recommendations. The analyses were approved by the University of Southern California (USC) Institutional Review Board of Medical Sciences and conducted at the USC/Norris Comprehensive Cancer Center in accordance with the Declaration of Helsinki and Good Clinical Practice Guidelines.
Genomic DNA was extracted from peripheral whole blood in patients of all cohorts using the QIAmp Kit (Qiagen, Valencia, Calif., USA) according to the manufacturer's protocol (www.qiagen.com). The candidate SNPs were genotyped using PCR-based direct DNA sequence analysis by ABI 3100A Capillary Genetic Analyzer and Sequencing Scanner v1.0 (Applied Biosystems). Amplification of extracted DNA was carried out using both forward and reverse primers for each gene polymorphism as shown in Table 1. […] The investigators analyzing SNPs were blinded to the clinical data of the study patients.
The primary endpoint in this study was progression-free survival (PFS), and the secondary endpoints were overall survival (OS) and disease control rate (DCR). PFS was calculated from the date of starting treatment to the first observation of disease progression or death from any cause. If a patient had no disease progression or death, PFS was censored at the date of last follow up. OS was calculated from the date of starting treatment until the date of death from any cause or the date of the last follow-up, at which point OS was censored. The disease control rate (DCR) was defined as the proportion of patients who achieved a stable disease (SD) or […] according to RECISTv1.1. Chi-square test was used to examine the difference in baseline patient characteristics among the three cohorts. Allelic distribution of all SNPs by ethnicity for deviation from Hardy-Weinberg equilibrium and the allelic frequencies of SNPs were tested using the Chi-square tests with one degree of freedom. The associations between candidate SNPs and disease control, and toxicities were examined using contingency tables and Fisher's exact test. The associations of SNPs with PFS and OS were analysed using Kaplan-Meier curves and the log-rank test. Because the true mode of inheritance of candidate SNPs was not established yet, a codominant or dominant genetic model if appropriate was considered.
All patients underwent the treatment in salvage-line setting. […] In all patients, adverse events were graded according to the Common Terminology Criteria for Adverse Events, version 4.0.
Patients in the control group received 160 mg regorafenib (Bayer, Leverkusen, Germany) once daily from day 1 to 21 every 4 weeks. Doses were adjusted based on haematological and non-haematological adverse events at treating physician's discretion in accordance with the manufacturer's recommendations. The analyses were approved by the University of Southern California (USC) Institutional Review Board of Medical Sciences and conducted at the USC/Norris Comprehensive Cancer Center in accordance with the Declaration of Helsinki and Good Clinical Practice Guidelines.
Genomic DNA was extracted from peripheral whole blood in patients of all cohorts using the QIAmp Kit (Qiagen, Valencia, Calif., USA) according to the manufacturer's protocol (www.qiagen.com). The candidate SNPs were tested using PCR-based direct DNA sequence analysis by ABI 3100A Capillary Genetic Analyzer and Sequencing Scanner v1.0 (Applied Biosystems). […] The investigators analyzing SNPs were blinded to the clinical data.
The primary endpoint in this study was progression-free survival (PFS), and the secondary endpoints were overall survival (OS) and disease control rate (DCR). […]

[1] = Sex Female vs Male (Ref.), univariate
[2] = Tumor site Left vs Right (Ref.), univariate
[3] = XRCC3 rs861539 A/A vs G/G (Ref.), multivariable
[4] = XRCC3 rs861539 A/A vs G/G (Ref.), univariate
[5] = XRCC3 rs861539 Any A vs G/G (Ref.), multivariable
[6] = XRCC3 rs861539 Any A vs G/G (Ref.), univariate
[7] = XRCC3 rs861539 G/A vs G/G (Ref.), multivariable
[8] = XRCC3 rs861539 G/A vs G/G (Ref.), univariate
[9] = MATE1 rs2289669 G/A and A/A combined
[10] = MATE1 rs2289669 G/A and A/A combined vs G/G

CNC(=O)c1cc(Oc2ccc(NC(=O)Nc3ccc(Cl)c(C(F)(F)F)c3)c(F)c2)ccn1 [regorafenib]
Median OS (Sex Female): 5.5 months | Median PFS (Sex Female): 2.0 months | HR OS [1]: 1.18 | HR PFS [1]: 1.02 | Median OS (Sex Male): 5.4 months | Median PFS (Sex Male): 1.8 months | Median OS (Tumor site Left): 7.2 months | Median PFS (Tumor site Left): 2.2 months | HR OS [2]: 0.82 | HR PFS [2]: 0.80 | Median OS (Tumor site Right): 3.9 months | Median PFS (Tumor site Right): 1.8 months | Disease Control CR/PR/SD, patients n (%) (XRCC3 rs861539 A/A): 3 (43%) | Median OS (95% CI) (XRCC3 rs861539 A/A): 5.4 (2.3, 9.1) months | Median PFS (95% CI) (XRCC3 rs861539 A/A): 2.7 (1.7, 4.3) months | PD, patients n (%) (XRCC3 rs861539 A/A): 4 (57%) | HR OS (95% CI) [3]: 0.54 (0.21, 1.40) | HR PFS (95% CI) [3]: 0.62 (0.23, 1.65) | HR OS (95% CI) [4]: 0.34 (0.04, 2.95) | HR PFS (95% CI) [4]: 0.83 (0.34, 2.06) | Disease Control CR/PR/SD, patients n (%) (XRCC3 rs861539 Any A): 13 (38%) | Median OS (95% CI) (XRCC3 rs861539 Any A): 5.9 (3.8, 8.0) months | Median PFS (95% CI) (XRCC3 rs861539 Any A): 2.0 (1.8, 3.1) months | PD, patients n (%) (XRCC3 rs861539 Any A): 21 (62%) | HR OS (95% CI) [5]: 0.71 (0.38, 1.31) | HR PFS (95% CI) [5]: 0.85 (0.44, 1.63) | HR OS (95% CI) [6]: 0.72 (0.22, 2.39) | HR PFS (95% CI) [6]: 0.83 (0.45, 1.53) | Disease Control CR/PR/SD, patients n (%) (XRCC3 rs861539 G/A): 10 (37%) | Median OS (95% CI) (XRCC3 rs861539 G/A): 6.8 (3.6, 8.7) months | Median PFS (95% CI) (XRCC3 rs861539 G/A): 1.9 (1.8, 3.1) months | PD, patients n (%) (XRCC3 rs861539 G/A): 17 (63%) | HR OS (95% CI) [7]: 0.76 (0.40, 1.44) | HR PFS (95% CI) [7]: 0.92 (0.47, 1.79) | HR OS (95% CI) [8]: 0.86 (0.25, 2.96) | HR PFS (95% CI) [8]: 0.83 (0.44, 1.56) | Disease Control CR/PR/SD, patients n (%) (XRCC3 rs861539 G/G): 4 (27%) | Median OS (95% CI) (XRCC3 rs861539 G/G): 4.1 (1.7, 6.0) months | Median PFS (95% CI) (XRCC3 rs861539 G/G): 1.7 (1.0, 2.2) months | PD, patients n (%) (XRCC3 rs861539 G/G): 11 (73%) | Disease Control Rate PD (MATE1 rs2289669 A/A): 5 (50%) | Disease Control Rate SD (MATE1 rs2289669 A/A): 3 (50%) | Disease Control Rate SD (MATE1 rs2289669 G/A): 7 (27%) | PD, patients n (%) (MATE1 rs2289669 G/A): 19 (73%) | Overall Survival Median, months (95% CI) [9]: 5.3 (3.7, 8.0) months | Progression-free Survival Median, months (95% CI) [9]: 1.8 (1.7, 2.8) months | Overall Survival HR (95% CI) multivariate [10]: 0.99 (0.52, 1.91) | Overall Survival HR (95% CI) univariate [10]: 0.85 (0.50, 1.57) | Progression-free Survival HR (95% CI) multivariate [10]: 0.86 (0.43, 1.70) | Progression-free Survival HR (95% CI) univariate [10]: 0.65 (0.48, 1.52) | Disease Control Rate PD (MATE1 rs2289669 G/G): 10 (59%) | Disease Control Rate SD (MATE1 rs2289669 G/G): 7 (41%) | Overall Survival Median, months (95% CI) (MATE1 rs2289669 G/G): 5.7 (2.2, 7.8) months | Progression-free Survival Median, months (95% CI) (MATE1 rs2289669 G/G): 2.1 (1.5, 3.1) months | Overall Survival HR (95% CI) univariate (OCT2 rs316000): 0.95 (0.50, 1.83) | Progression-free Survival HR (95% CI) univariate (OCT2 rs316000): 0.95 (0.50, 1.83) | Disease Control Rate PD (OCT2 rs316019 A/A): 1 (100%) | Disease Control Rate SD (OCT2 rs316019 A/A): 0 | Disease Control Rate PD (OCT2 rs316019 C/A): 6 (86%)
